Experimental findings from patent publication US9096607B2, “Tumor necrosis factor inhibitors” (THE TRUSTEES OF THE UNIVERSITY OF PENNSYLVANIA, priority 2005, dated 2015) are described below.

One test has as its target T1, TNF-R1 (Homo sapiens, UniProt P19438).
T1 construct: The ectodomain of wild type TNF receptor 1 was obtained by PCR from pKP13; made in house
T1 sequence (P19438 30-211 limits assumed): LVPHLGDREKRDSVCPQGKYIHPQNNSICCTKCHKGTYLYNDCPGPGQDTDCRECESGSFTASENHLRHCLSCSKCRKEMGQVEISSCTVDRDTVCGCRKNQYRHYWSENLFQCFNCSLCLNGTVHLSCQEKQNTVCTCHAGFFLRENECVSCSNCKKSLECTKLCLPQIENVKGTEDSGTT
As to the kind of experiment: Acrylamide quenching of intrinsic tryptophan fluorescence of TNF-R1 (Stern-Volmer). In kind it is binding. To be noted: test compound 20 μM, 5 μM TNF-R1; TNF-R1 alone 14.4±0.2 M^−1. The method, then: The residue W107 in the WP9 loop fluoresces around 340 nm. In this set of experiments, the resultant concentration of quencher ranged up to 0.25 M, quenching 77.4% of the total intrinsic fluorescence of TNF-R1. […] Thus binding of 1-9 to the receptor changed the disposition of tryptophan-107.
Quenching experiments with acrylamide were performed in stirred cells, at 25° C., titrating from a stock of 1 M acrylamide by adding 2.5 μl of acrylamide each time. Recombinant TNF-R1 were at the concentration of 5 μM in 1% DMSO. Tryptophan emission, monitored at 340 nm, was observed using 295 nm excitation. Intensity data following quencher additions were averaged over a 10-sec collection and were corrected for background emission (paired control lacking of protein). Intensities, F, at given quencher concentration, [Q], were analyzed using the Stern-Volmer equation, F0/F=1+KS.V·[Q] • Where F0 is the emission intensity of the protein in the absence of quencher, and KS.V is the Stern-Volmer constant for quenching, given by the slope when data are plotted as Fo/F versus [Q].
For synthesized small molecules, a test compound at 20 μM was pre-incubated with 5 μM TNF-R1 in 1% DMSO for 30 min, and titrated with 1 M acrylamide the same way as TNF-R1 alone. The F0/F was analyzed using the Stern-Volmer equation, and two slopes from TNF receptor and from TNF receptor with the test compound were compared.

The subject of test [1] is TNF-α signaling in THP1 cells. As to the kind of experiment: Inhibition of TNF-α signaling in THP1 cells (western blot). The settings on record: 2 hr pretreatment. The class given is cell-based, Human. The method, then: THP1 cells (Human acute monocytic leukemia cell line, American Type Culture Collection, Manassas, Va.) were cultured in RPMI with the supplement of 50 mM HEPES, 1 mM Na Pyruvate, 50 μM of 2-ME, 2.5 mg/mL of glucose, […] of gentamicin and 10% of FBS. Cells were cultured in 12-well plate at a density of 6×10^5/well with supplement of 100 ng/mL PMA. Cells were plated 72 hrs to differentiate. Cells were then pretreated with or without small molecule for 2 hr, followed by treatment with TNF-α at 20 ng/mL at the indicated periods. Cells were then lysed and analyzed by western blotting in the same manner as described above for L929 cells.

In test [2] the test system is EGF-signaling in NE91 cells. Briefly: Effect on EGF-signaling in NE91 cells (western blot). In kind it is cell-based. The settings on record: 2 hr treatment, EGF 100 ng/mL. The method, then: To verify the effects of I-9 were specific to TNF-α signaling, the effect of I-9 on EGF-signaling was tested in NE91 cells (American Type Culture Collection, Manassas, Va.). NE91 cells were cultured in RPMI medium containing 10% FBS in 6-well plate at the density of 1×10^6/well for 12 hr, followed by 2 hr treatment with or without I-9. Cells were then stimulated with EGF at 100 ng/mL for the indicated time. Cells were then lysed and analyzed by western blotting in the same manner as described above for analysis of TNF-α signaling in L929 cells.

Another test deals with L929 cells. Briefly: Inhibition of TNF-α mediated cytolysis of L929 cells (Alamar Blue). The settings on record: TNF-α 100 pg/mL, actinomycin D 1 μM. In kind it is cell-based, murine. From the text:
L929 cultured murine fibroblasts cells were obtained from American Type Culture Collection (Manassas, Va.). Tissue culture reagents were from Invitrogen or Sigma-Aldrich. TNF-α and Actinomycin D were from Sigma-Aldrich. Alamar Blue reagents (Cell Titer Blue™) were from Promega. The test compounds I-1 through I-16, II-1 through II-8, and III-1 through III-3 were obtained commercially or can be prepared as described above. The test compounds were individually dissolved in dimethylsulfoxide (DMSO). The test compounds were maintained at 4° C. when not in use. Other reagents were high-purity (ACS-grade, HPLC-grade, MilliQ water, or similar).
Stock L929 cells were grown on tissue culture plastic in complete DMEM (Dulbecco's Modified Eagles Medium) supplemented with 10% FBS (Fetal Bovine Serum), NEAA (non-essential amino acids), and glutamine. L929 cells were plated using the same medium on 96-well tissue culture plates at high density (i.e., ˜4×10^4 cells/well, or similar) before use.
Approximately 20 h after plating, the L929 cells on 96-well plates were re-fed with fresh medium containing one of the test compounds in a concentration selected from 100 μM, 50 μM, 25 μM as a “pre-treatment.” Approximately 30-60 min later, samples were treated with an additional amount of test compound (in the same amount and at the same concentration as the pre-treatment) prepared in medium containing TNF-α (200 pg/mL), and actinomycin D (2 μM). The final concentration of TNF-α in assays was 100 pg/mL. The final concentration of actinomycin D in assays was 1 μM. The plates were incubated for an additional 22-23 h, the Alamar Blue assay reagents were added and metabolic cell viability was determined from reduction of a fluorogenic Alamar Blue derivative.
The temperature was maintained at 37° C. with 5% CO2 and humidified. The metabolic viability was measured 1-2 h after addition of assay reagents/Alamar Blue derivative using TECAN SaFire fluorescence plate reader (Tecan Group Ltd., Maennedorf, Switzerland).
Inhibition of TNF-α induced cytolysis by a test compound (X) at a given concentration (y) was calculated as follows: […]

On to `CC(=O)Oc1ccc(C(C)(c2ccc(OC(C)=O)cc2)c2ccc(OC(C)=O)cc2)cc1` [Compound I-9, 1,1,1-Tris-(4-acetoxyphenyl)ethane], for which the “Stern-Volmer constant for TNF-R1 quenching by acrylamide in the presence of the test compound” value at TNF-R1 amounted to 11.6 ± 0.2 M⁻¹. Further, in test [1], the “TNF-α mediated I-kBα phosphorylation” value was “inhibited” and the “TNF-α mediated p38 phosphorylation” value is on record as “inhibited”. Also, in test [2], the “changes in EGF-induced signaling” value is “failed to induce changes”. Also, in the test with L929 cells (25 μM compound), the “% Inhibition at: 25 μM” value was determined as 37.2%. Also, in the test on L929 cells (50 μM compound), the “% Inhibition at: 50 μM” value worked out at 65.2%. Further, in the test with L929 cells (100 μM compound), the “% Inhibition at: 100μM” value was 50.9%.
